Test results taken from PubChem BioAssay (NCI).
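The compound was tested at five concentrations on cells cultured in 96-well plates, with a 48-hour exposure period. GI50: concentration for 50% inhibition of growth. Definition used: TGI = concentration required for complete inhibition of growth.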

Tests used:
Assay in all cases: inhibition of tumour cell growth, NCI panel, 48 h
[1] = test system: NCI-H23 lung
[2] = test system: U251 CNS
[3] = test system: MDA-MB-231 breast
[4] = test system: RPMI-8226 leukemia
[5] = test system: KM12 colon
[6] = test system: MALME-3M melanoma
[7] = test system: SK-MEL-2 melanoma
[8] = test system: TK-10 renal
[9] = test system: NCI-H522 lung
[10] = test system: HS 578T breast
[11] = test system: EKVX NSCLC
[12] = test system: OVCAR-8 ovarian
[13] = test system: UACC-257 melanoma
[14] = test system: MOLT-4 leukemia
[15] = test system: HOP-92 NSCLC

Row | SMILES | TGI [1] | TGI [2] | TGI [3] | TGI [4] | TGI [5] | TGI [6] | TGI [7] | TGI [8] | TGI [9] | TGI [10] | TGI [11] | TGI [12] | TGI [13] | TGI [14] | TGI [15] | GI50 [4] | GI50 [11] | GI50 [13] | GI50 [14]
1 | COc1ccc(/C=C2\N=C(NN)N=C2Cl)cc1 | > 100 µM | > 100 µM | > 100 µM | > 100 µM | > 100 µM | > 100 µM | > 100 µM | > 100 µM | > 100 µM | > 100 µM | > 100 µM | > 100 µM | > 100 µM | > 100 µM | > 100 µM |  |  |  | 
2 | Cc1cn(C2CC(N)C(C(=O)O)O2)c(=O)[nH]c1=O (centres undefined) | > 100 µM | > 100 µM | > 100 µM | > 100 µM | > 100 µM | > 100 µM | > 100 µM | > 100 µM | > 100 µM | > 100 µM | > 100 µM | > 100 µM | > 100 µM | > 100 µM | > 100 µM |  |  |  | 
3 | CC#CCCN(CC#N)Cc1ccccc1 | > 100 µM | > 100 µM | > 100 µM | > 100 µM | > 100 µM | > 100 µM | > 100 µM | > 100 µM | > 100 µM | > 100 µM | > 100 µM | > 100 µM | > 100 µM | > 100 µM | > 100 µM |  |  |  | 
4 | O=c1[nH]n(Cc2ccccn2)c2ccc([N+](=O)[O-])cc12 | > 100 µM | > 100 µM | > 100 µM | > 100 µM | > 100 µM | > 100 µM | > 100 µM | > 100 µM | > 100 µM | > 100 µM | > 100 µM | > 100 µM | > 100 µM | > 100 µM | > 100 µM |  |  |  | 
5 | COc1cc2c(cc1OCc1ccccc1)NC(=S)[C@@H]1CCCN1C2=S | > 100 µM | > 100 µM | > 100 µM | > 100 µM | > 100 µM | > 100 µM | > 100 µM | > 100 µM | > 100 µM | > 100 µM | > 100 µM | > 100 µM | > 100 µM | > 100 µM | > 100 µM |  |  |  | 
6 | COc1cc2c(cc1O)[C@@H]1Cc3c(cc(OC)c(OC)c3Oc3cc4c(cc3OC)CCN(C)[C@@H]4Cc3ccc(O)cc3)[C@H](C2)N1C | > 100 µM | > 100 µM | 98.2 µM | > 79.6 µM | > 100 µM | 32.2 µM | 53.3 µM | > 100 µM | 67 µM | > 100 µM | > 100 µM | > 100 µM | 44.6 µM | > 90.5 µM | > 100 µM |  |  |  | 
7 | O=C(NC(Nc1ccc(F)c(Cl)c1)(C(F)(F)F)C(F)(F)F)OCc1ccccc1 | > 100 µM | > 100 µM | 33.5 µM | 61.4 µM | > 100 µM | > 100 µM | > 100 µM | > 100 µM | 42.1 µM | > 100 µM | 83.6 µM | > 100 µM | > 100 µM | 89.1 µM | 95 µM |  |  |  | 
8 | COC(=O)[C@@H]1C[C@@H]2c3ccccc3N(S(=O)(=O)c3ccccc3)[C@@H]2N1C(=O)OC | > 100 µM | > 100 µM | > 100 µM | > 100 µM | > 100 µM | > 100 µM | > 100 µM | > 100 µM | > 100 µM | > 100 µM | > 100 µM | > 100 µM | > 100 µM | > 100 µM | > 100 µM |  |  |  | 
9 | O=C(O)c1ccccc1/C=N/NC1=NCCCCN1 | > 100 µM | > 100 µM | > 100 µM | > 100 µM | > 100 µM | > 100 µM | > 100 µM | > 100 µM | > 100 µM | > 100 µM | > 100 µM | > 100 µM | > 100 µM | > 100 µM | > 100 µM |  |  |  | 
10 | Cc1cc(NS(=O)(=O)c2ccc(Nc3c4ccccc4nc4ccc(C(=O)Nc5ccc(S(N)(=O)=O)cc5)cc34)cc2)no1 | > 100 µM | > 100 µM | > 100 µM | > 100 µM | > 100 µM | > 100 µM | > 100 µM | > 100 µM | > 100 µM | > 100 µM | > 100 µM | > 100 µM | > 100 µM | > 100 µM | > 100 µM |  |  |  | 
11 | C=CCOC(=O)[C@@H]1C[C@@H](OC(C)(C)C)CN1C(=O)[C@@H]1[C@H]2OC(C)(C)O[C@H]2CN1C(=O)OCC1c2ccccc2-c2ccccc21 | 33.9 µM | 28.8 µM | 33.1 µM | 32.3 µM | 11 µM | 39.2 µM | > 55 µM | 32.5 µM | 1.39 µM | 42.5 µM | 10.6 µM | 15.3 µM | 35.4 µM | 34.4 µM | 35 µM |  |  |  | 
12 | C[C@]12[C@@H]3CC[C@H]1[C@@H](OC(=O)Nc1cc([N+](=O)[O-])cc([N+](=O)[O-])c1)C(=O)N2CC3 | > 100 µM | > 100 µM | > 100 µM | > 100 µM | > 100 µM | > 100 µM | > 100 µM | > 100 µM | > 100 µM | > 100 µM | > 100 µM | > 100 µM | > 100 µM | > 100 µM | > 100 µM |  |  |  | 
13 | C=CC[C@@]1(C)CCCCCCCCC[C@@](C)(CC=C)C1=O | 63.9 µM | 33 µM | 80.9 µM | 66.7 µM | 94.5 µM | 58.1 µM | 37.9 µM | > 100 µM | 59.4 µM | 42.9 µM | > 100 µM | 57.9 µM | 58.6 µM | 43.2 µM | > 100 µM |  |  |  | 
14 | Cc1ccc(/C=C/C(=N/NC(=O)N/N=C(/C=C/c2ccc(C)cc2)C(C)(C)CN2CCCCC2)C(C)(C)CN2CCCCC2)cc1 | 4.82 µM | 2.82 µM | 3.22 µM | 0.897 µM | 3.01 µM | 3.07 µM | 3.44 µM | 3.26 µM | 3.04 µM | 3.29 µM | 6.69 µM | 2.88 µM | 3.1 µM | 0.345 µM | 3.44 µM |  |  |  | 
15 | C=CC(C)CCC(C/C=C(\C)CCC=C(C)C)C(=C)CCCC(C)C (centres undefined) | > 100 µM | > 100 µM | > 100 µM | > 100 µM | > 100 µM | > 100 µM | > 100 µM | > 100 µM | > 100 µM | > 100 µM | > 100 µM | > 100 µM | > 100 µM | > 100 µM | > 100 µM |  |  |  | 
16 | CCOC(=O)/C=C1\c2ccccc2C(=O)N1CC(=O)OCC | > 100 µM | > 100 µM | > 100 µM | > 100 µM | > 100 µM | > 100 µM | > 100 µM | > 100 µM | > 100 µM | > 100 µM | > 100 µM | > 100 µM | > 100 µM | > 100 µM | > 100 µM |  |  |  | 
17 | S=c1sc2nc(Cl)nc(Cl)c2s1 | 39.3 µM | 21.3 µM | 24.7 µM | 9.67 µM | 20.8 µM | 23.2 µM | 23.8 µM | 26.5 µM | 25.2 µM | 60.4 µM | 31.8 µM | 29.8 µM | 31.9 µM | > 29.3 µM | 17.4 µM |  |  |  | 
18 | CC1OC(OC2C(O)COC(OC3C(C)OC(OC4C(OC(=O)[C@]56CCC(C)(C)C[C@@H]5C5=CCC7[C@@]8(C)C[C@H](O)[C@H](OC9OC(CO)C(O)C(OC%10OC(CO)C(O)C(O)C%10O)C9O)[C@@](C)(CO)[C@@H]8CC[C@@]7(C)[C@]5(C)CC6)OCC(O)C4O)C(O)C3O)C2O)C(O)C(O)C1O (some centres undefined) | 31 µM | 32.8 µM | 31.2 µM | 51.8 µM | 55.2 µM | 30.8 µM | 36 µM | 34.2 µM | 31.4 µM | 40.9 µM | 26.1 µM | 32.8 µM | 35.6 µM | 36.5 µM | 38.4 µM |  |  |  | 
19 | C=C1C(=O)O[C@H]2[C@H]1CC(=O)/C(C)=C/CC[C@@]1(C)O[C@@H]21 | 4.03 µM | 13.6 µM | 3.5 µM | 1.92 µM | 7.09 µM | 3.48 µM | 8.47 µM | 2.65 µM | 0.729 µM | 8.62 µM | 24.8 µM | 7.47 µM | 5.57 µM | 1.13 µM | 1.65 µM | 308 nM | 6.06 µM | 2000 nM | 276 nM
20 | C/C=C/C(=O)N1C(=O)OC[C@@H]1c1ccccc1 | 32.8 µM | 48.5 µM | 39.8 µM | 50 µM | 29.3 µM | 39.7 µM | 36.9 µM | 32.2 µM | 39.1 µM | 76.2 µM | 35 µM | 38.5 µM | 39.9 µM | 47.3 µM | 37.2 µM |  |  |  | 
21 | CCOC(=O)c1cnc(-n2[nH]c3c(c2=O)CCCC3)[nH]c1=O | > 100 µM | > 100 µM | > 100 µM | > 100 µM | > 100 µM | > 100 µM | > 100 µM | > 100 µM | > 100 µM | > 100 µM | > 100 µM | > 100 µM | > 100 µM | > 100 µM | 57.6 µM |  |  |  | 
22 | CCc1c(Cc2cc(C)cc(C)c2)n2c(nc1=O)SCC2CBr (centres undefined) | > 50 µM | > 50 µM | > 50 µM | > 50 µM | > 50 µM | > 50 µM | > 50 µM | > 50 µM | > 50 µM | > 50 µM | > 50 µM | 40.4 µM | > 50 µM | > 50 µM | > 50 µM |  |  |  | 
